In brackets after ≈: the same amount, converted by molar mass. Like-named read-outs stand apart in the source and are kept apart here. Each block holds one compound with its values, some of them ahead of it.
What was measured:
[1] = cited from earlier work; for pKa: ammonium pKa (Brown 1955)
[2] = pKa determination by 31P NMR spectroscopy; format: physicochemical; conditions: control experiment, sodium phosphate buffer containing 20% v/v D2O
Experimental: The pKa values of phosphinothiols 33-35 were determined to quantitate the impact of Coulombic effects. […] Thus, the phosphorous pKa value of the cationic phosphinothiols appears to be below the limit of experimental detection. […] (Moore, S. J.; Marzilli, L. G. Inorg. Chem. 1998, 37, 5329-810 5335.) That value is much larger than the phosphorous pKa of phosphinothiols 33-35, consistent with the present hypothesis that through-space Coulombic effects lower the pKa of neighboring atoms, and in particular discourage protonation of the key iminophosphorane intermediate.
pKa Determination of phosphinothiols […] (10 mg) were each dissolved in sodium phosphate buffer containing 20% v/v D2O. 750 The solution was adjusted with a solution of either 6 N HCl or 2 N NaOH, and chemical shifts at each pH were determined by ^31P NMR spectroscopy. An external standard (D3PO4) was used to calibrate the chemical shifts. […] (Podlaha, J.; Podlahova, J. Collect. Czech. Chem. Commun. 1973, 38, 1730-1736.)

[3] = Gly+Gly coupling in DMF/D2O (6:1), reported previously; cited from earlier work
[4] = Solubility in water or aqueous sodium phosphate buffer; format: physicochemical; conditions: 0.4 M sodium phosphate buffer (pH 7.8)
[5] = Stability in air / on storage; format: physicochemical; conditions: chloride salt, solid

SMILES: Fc1ccc(P(c2ccc(F)cc2)c2ccc(F)cc2)cc1 [(p-F—C6H4)3P]
phosphorous pKa ([1]; in water (Moore 1998)): 1.97

SMILES: COc1ccc(P(c2ccc(OC)cc2)c2ccc(OC)cc2)cc1 [(p-OMe-C6H4)3P]
phosphorous pKa ([1]; in water (Moore 1998)): 4.57

SMILES: CCCCCCN [CH3(CH2)5NH3^+]
pKa [1]: 10.63

SMILES: CCCCCCCCCN [CH3(CH2)8NH3^+]
pKa [1]: 10.65

SMILES: CCP(c1ccccc1)c1ccccc1 [EtPPh2]
phosphorous pKa ([1]; neutral mimic of HSCH2PPh2 (Moore 1998)): 4.90

SMILES: c1ccc(P(c2ccccc2)c2ccccc2)cc1 [Ph3P]
phosphorous pKa ([1]; in water (Moore 1998)): 2.73

SMILES: O=C(O)CCP(CCC(=O)O)CCC(=O)O [TCEP, tris(2-carboxyethyl)phosphine]
pKa [2]: 7.7
pKa, reported value ([1]; reported value (Podlaha 1973)): 7.66

SMILES: NCCCCCN [^+H3N(CH2)5NH3^+]
pKa [1]: 9.74

SMILES: NCCCCCCCCN [^+H3N(CH2)8NH3^+]
pKa [1]: 10.10

SMILES: SCP(c1ccccc1)c1ccccc1 [phosphinothiol 1, (Diphenylphosphino)methanethiol]
second-order rate constant k2 [3]: 0.0077 M⁻¹ s⁻¹

solubility [4]: ~50 mM (≈ 21.7 mg/mL)
SMILES: O=C(O)CNC(=O)c1ccc(P(CS)c2ccc(C(=O)NCC(=O)O)cc2)cc1 [phosphinothiol 9]

stability in air [5]: stable in air for several days
solubility ([4]; aqueous buffer, chloride salt, read-out: solubility): > 1000 mM
SMILES: CN(C)CCc1ccc(P(CS)c2ccc(CCN(C)C)cc2)cc1 [phosphinothiol 17, bis(p-dimethylaminoethyl) phosphinomethanethiol]

— patent publication US8410247B2, “Water-soluble phosphinothiol reagents” (Wisconsin Alumni Research Foundation, priority 2008, dated 2013)
